# Reference: patent US11235001B2, “RUNX inhibitor” (KYOTO UNIVERSITY, priority 2016, dated 2022)
# Experiments:
# NB4 (p53MT) = assay: cells; conditions: Homo sapiens
# UF1 (p53Null) = assay: cells; conditions: Homo sapiens
# SU-Ph2 cells = assay: Cell growth inhibition assay, SU-Ph2 cells; type: cell-based, human; conditions: SU-Ph2, 48 hours
# [1] = system: AML cell lines expressing functional p53 (MV4-11, OCI-AML2, OCI-AML3 and MOLM-13); assay: Growth inhibition assay of AML cell lines expressing functional p53; type: cell-based, human; conditions: 48 hours; at between nanomolar to low micromolar levels
# Procedure: Growth inhibition of some AML cell lines expressing functional p53 (MV4-11, OCI-AML2, OCI-AML3 and MOLM-13) by PI polyamide conjugates at different concentrations was tested. Briefly, the cells were placed at a density of 1×10^5 cells/mL. Different concentrations of a PI polyamide conjugate (Chb-M′ or Chb-50) were added to media, and the cells were incubated for 48 hours (n=3). The number of viable cells when the PI polyamide conjugate was not added was used as a control (DMSO control). Cell viability was assessed by counting the viable cells with Cell Count Reagent SF (Nacalai tesque, Inc.) and Infinite (registered trademark) 200 PRO multimode reader (TECAN) according to the manufacturer's instructions.
# IL3, CSF2 and CSF2RB = assay: qRT-PCR of RUNX1 target genes in MV4-11 cells; type: cell-based, human; conditions: 5 μM, 6 hours
# [2] = system: BCL11A, TRIM24, p53, p21, BAX, PUMA and MDM2; assay: qRT-PCR of p53 suppressors and p53 target genes in MV4-11 cells; type: cell-based, human; conditions: 1 μM, 6 hours
# Procedure: A total RNA was isolated with RNeasy mini kit (Qiagen) and reverse transcribed with Reverse script kit (TOYOBO) to generate cDNA. Real-time quantitative polymerase chain reaction (PCR) was carried out with 7500 Real-Time PCR System (Applied Biosystems) according to the manufacturer's instructions. Results were normalized to GAPDH levels. Relative expression levels were calculated using the 2-ΔΔCt method.
# [3] = system: BCL11A, TRIM24, p21, BAX, PUMA, MDM2, PARP, cleaved caspase-3; assay: Immunoblotting of p53 pathway and apoptosis proteins in MV4-11 cells; type: cell-based, human; conditions: 1 μM, 24 hours
# Procedure: Cells were washed twice with ice cold phosphate-buffered saline (PBS) and harvested in protein lysis buffer [50 mM Tris (pH 7.4), 100 mM NaCl, 0.1 mM EDTA, 1 mM phenylmethylsulfonyl fluoride, 1 mM β-glycerophosphate, 2.5 mM sodium pyrophosphate, 1 mM Na3VO4, lx protease inhibitor (Roche) and PhosSTOP (Roche)]. Whole cell extracts were separated by SDS-polyacrylamide gel electrophoresis (SDS-PAGE) and electrotransferred onto polyvinylidene difluoride membranes. Membranes were probed with the following antibodies: anti-Ctip1 antibody (Abcam, ab19487), anti-TRIM24 antibody (Bethyl Laboratories, Inc), anti-RUNX1 antibody (A-2), anti-GAPDH (FL-335), anti-p21 (C-19), anti-Bax (N-20) antibodies (Santa Cruz Biotechnology, Inc.), anti-RUNX2, anti-RUNX3, anti-p53 antibodies (Cell Signaling Technology), anti-CBFβ antibody (FL-182, Santa Cruz Biotechnology, Inc.), anti-cleaved caspase-3 antibody (5A1E, Cell Signaling Technology), anti-PARP antibody (46D11, Cell Signaling Technology). For secondary antibodies, anti-rabbit IgG, or anti-mosue IgG HRP-linked antibodies (Cell Signaling Technology) were used. Blots were detected using Chemi-Lumi One Super (nacalai tesque, Inc.) and ChemiDoc™ XRS+ Imager (Bio-Rad Laboratories, Inc.), as recommended by the manufacturers. Protein levels were quantified with Image Lab Software (Bio-Rad Laboratories, Inc.).
# Briefly, MV4-11 cells were treated with 1 μM Chb-M′ or Chb-50 for 24 hours. The treated cells were dissolved in the protein lysis buffer. Whole cell extracts were resolved by SDS-polyacrylamide gel electrophoresis (SDS-PAGE) and transferred onto polyvinylidene difluoride membranes. The membranes were probed with each antibody. Blots were detected and quantified. As a control, the cells treated with DMSO were used.
# [4] = system: RUNX family (RUNX1, RUNX2 and RUNX3); assay: Gene expression microarray in MV4-11 cells vs RUNX family knockdown; type: cell-based, human; conditions: 1 μM, 6 hours, top 500 up- and down-regulated genes
# SU/SR cells [5] = conditions: read-out: IC50 value; SU/SR (imatinib-resistant), 48 hours
# [6] = system: p53-mutated colon cancer cell line HT29; conditions: HT29, 72 hours
# DU-145 cells = assay: cells; conditions: Homo sapiens, DU-145, 48 h, read-out: IC50 (μM) in DU-145 cells
# LNCaP cells = assay: cells; conditions: Homo sapiens, 48 h, read-out: IC50 (μM) in LNCaP cells
# [7] = system: medulloblastoma cell line DAOY; assay: cells; conditions: Homo sapiens, 48 h
# KG1a = assay: cells; conditions: Homo sapiens, KG-1a, 48 h, read-out: IC50 (μM) of PRIMA-1 single agent administration
# HL60 = assay: cells; conditions: Homo sapiens, HL-60, 48 h, read-out: IC50 (μM) of PRIMA-1 single agent administration
# Kasumi-1 = assay: cells; conditions: Homo sapiens, Kasumi 1, 48 h, read-out: IC50 (μM) of PRIMA-1 single agent administration
# THP-1 = assay: cells; conditions: Homo sapiens, THP-1, 48 h, read-out: IC50 (μM) of PRIMA-1 single agent administration
# MV4-11NR = assay: cells; conditions: Homo sapiens, 48 h, read-out: IC50 (μM) of PRIMA-1 single agent administration
# MV4-11 cells = assay: Xenograft AML mouse model (MV4-11); type: in vivo; conditions: NOG mice with MV4-11, day 14
# A549 cells = assay: Xenograft lung cancer mouse model (A549); type: in vivo
# SU/SR cells [8] = assay: Xenograft ALL mouse model (SU/SR); type: in vivo; conditions: NOG mice with SU/SR
compound,measurement,setting,value
"CC1=C(/C=C/C(C)=C/C=C/C(C)=C/C(=O)O)C(C)(C)CCC1 [ATRA, all-trans-retinoic acid]",IC50,NB4 (p53MT); 48 h,75.7 µM
same,IC50,NB4 (p53MT); 72 h,60.1 µM
same,IC50,UF1 (p53Null); 48 h,12.4 µM
same,IC50,UF1 (p53Null); 72 h,10.3 µM
CN(C)CCCNC(=O)c1nc(NC(=O)c2nc(NC(=O)c3cc(NC(=O)c4nc(NC(=O)CCCNC(=O)c5cc(NC(=O)c6nc(NC(=O)c7cc(NC(=O)c8cc(NC(=O)CCNC(=O)CCCc9ccc(N(CCCl)CCCl)cc9)cn8C)cn7C)cn6C)cn5C)cn4C)cn3C)cn2C)cn1C [Chb-50],IC50 compared with that of imatinib,SU-Ph2 cells,lower IC50 values
same,Growth inhibition of AML cells,[1],highly effective
same,"Expressions of RUNX1 target genes (IL3, CSF2, and CSF2RB), mRNA","IL3, CSF2 and CSF2RB",effectively inhibited
same,Gene expressions of p53 suppressors BCL11A and TRIM24,[2],down-regulated
same,mRNA expression level of p53,[2],unchanged
same,mRNA expression levels of p21 and PUMA,[2],increased
same,Cleaved form of PARP and cleaved caspase-3 (apoptosis),[3],emergence
same,"Protein expression levels of p53 and downstream proteins (p21, BAX)",[3],increased
same,Protein expression levels of suppressors of p53 (BCL11A and TRIM24),[3],reduced
same,Gene expression pattern vs cells with all RUNX family members knockdown,[4],significantly correlated
same,IC50,SU/SR cells [5],1.42 µM
O=C(O)CCCc1ccc(N(CCCl)CCCl)cc1 [Chlorambucil],IC50 (μM),[6],Not measurable
same,IC50,DU-145 cells,38.1 µM
same,IC50,LNCaP cells,37.6 µM
same,IC50,[7],18.2 µM
"O=C1C2CCN(CC2)C1(CO)CO [PRIMA-1, 2,2-bis(hydroxymethyl)-1-azabicyclo[2.2.2]octan-3-one]",IC50,KG1a,> 100 µM
same,IC50,HL60,5.74 µM
same,IC50,Kasumi-1,7.03 µM
same,IC50,THP-1,6 µM
same,IC50,MV4-11NR,5.5 µM
"Nc1ccn([C@@H]2O[C@H](CO)[C@@H](O)[C@@H]2O)c(=O)n1 [cytarabine, reference compound]",H&E staining of bone marrow,MV4-11 cells,little change
same,hCD45 staining of bone marrow (human leukemia cells),MV4-11 cells,filled with leukemia cells
"COc1cc2ncnc(Nc3ccc(F)c(Cl)c3)c2cc1OCCCN1CCOCC1 [gefitinib, reference compound]",Effect on the lung cancer model,A549 cells; A549 xenograft,did not show effect
same,H&E staining of lung tissue (lung cancer cells in pulmonary alveoli),A549 cells; day 14 after transplantation,densely filled with lung cancer cells
same,"Brightness of luciferase (IVIS), lung","A549 cells; day 14 after transplantation, after 2 administrations",increased
same,"Brightness of luciferase (IVIS), lung","A549 cells; day 21 after transplantation, after total 4 administrations",increased
"Cc1ccc(NC(=O)c2ccc(CN3CCN(C)CC3)cc2)cc1Nc1nccc(-c2cccnc2)n1 [imatinib, reference compound]",H&E staining of bone marrow,SU/SR cells [8],little change
same,Invasion of liver by transplanted PhALL cells (hCD45 staining),SU/SR cells [8],not inhibited
same,"Invasion of spleen by transplanted PhALL cells (hCD45 staining), compared with liver",SU/SR cells [8],same results
same,hCD45 staining of bone marrow (human leukemia cells),SU/SR cells [8],filled with leukemia cells
